Data on two molecules can be found in ChEMBL document CHEMBL4765473, “PF-07059013: A Noncovalent Modulator of Hemoglobin for Treatment of Sickle Cell Disease” (J Med Chem, 2021).

The target in data set [1] is Cytochrome P450 3A4 (Homo sapiens, UniProt P08684). Briefly: Inhibition of CYP3A4 (unknown origin). The class given is ADME.
The nature of data set [2]: Drug metabolism in human hepatocytes assessed formation of acyl glucuronides metabolites. The data set is classed as ADME, cell-based, Hepatocyte.
Data set [3] deals with T1, Cytochrome P450 1A2 (Homo sapiens, UniProt P05177).
T1 sequence (P05177 whole entry): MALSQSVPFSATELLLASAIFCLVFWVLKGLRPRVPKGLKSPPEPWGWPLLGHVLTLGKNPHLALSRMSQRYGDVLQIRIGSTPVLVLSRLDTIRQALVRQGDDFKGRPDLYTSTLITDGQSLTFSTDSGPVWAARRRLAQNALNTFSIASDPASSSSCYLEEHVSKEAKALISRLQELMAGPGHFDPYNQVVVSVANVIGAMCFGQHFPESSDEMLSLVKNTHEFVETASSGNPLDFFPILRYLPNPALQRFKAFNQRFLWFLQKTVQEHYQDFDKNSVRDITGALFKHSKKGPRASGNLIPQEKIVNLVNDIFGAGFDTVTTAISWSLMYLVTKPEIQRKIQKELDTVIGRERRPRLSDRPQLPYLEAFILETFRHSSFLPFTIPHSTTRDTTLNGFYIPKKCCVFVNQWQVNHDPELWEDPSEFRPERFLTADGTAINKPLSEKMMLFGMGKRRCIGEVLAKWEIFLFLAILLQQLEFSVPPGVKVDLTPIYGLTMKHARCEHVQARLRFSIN
Briefly: Inhibition of CYP1A2 (unknown origin). The data set is classed as ADME.

Data set [4] is described as follows: Apparent permeability from basolateral to apical side in MDCK-MDR1 cells. The class given is ADME, cell-based, Canis lupus familiaris. Particulars: dog.
The nature of data set [5]: Protein binding in human blood. The class given is ADME, tissue-based.
In data set [6] the target is T2, Cytochrome P450 2C8 (Homo sapiens, UniProt P10632).
T2 sequence (P10632 whole entry): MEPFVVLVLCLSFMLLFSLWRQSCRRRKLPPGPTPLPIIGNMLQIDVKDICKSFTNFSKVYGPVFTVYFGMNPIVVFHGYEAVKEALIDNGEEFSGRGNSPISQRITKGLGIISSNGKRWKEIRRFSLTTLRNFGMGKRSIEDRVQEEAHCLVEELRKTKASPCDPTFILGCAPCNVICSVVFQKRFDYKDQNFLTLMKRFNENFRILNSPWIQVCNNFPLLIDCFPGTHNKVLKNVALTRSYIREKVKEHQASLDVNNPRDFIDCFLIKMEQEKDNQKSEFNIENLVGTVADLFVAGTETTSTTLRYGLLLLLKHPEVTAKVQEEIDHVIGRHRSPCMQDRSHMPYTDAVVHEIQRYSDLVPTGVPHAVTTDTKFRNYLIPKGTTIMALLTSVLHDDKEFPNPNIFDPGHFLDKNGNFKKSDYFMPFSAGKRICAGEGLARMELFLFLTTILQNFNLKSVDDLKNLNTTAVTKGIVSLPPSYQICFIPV
Put plainly: Inhibition of CYP2C8 (unknown origin). The class given is ADME.

For data set [7], the system named is Mus musculus. Briefly: Binding to HbS in sickle Townes mouse at 30 to 900 mg/kg, po dosed via gavage measured after 0.5 to 24 hrs by Hemox-analyzer based assay. The class given is functional, organism-based. To be noted: dose 30-900 mg/kg, time 0.5-24 hrs.
A short description of data set [8]: Drug metabolism in human hepatocytes assessed formation of glucuronide metabolites. The class given is ADME, cell-based, Hepatocyte.
Data set [9] is described as follows: Apparent permeability in MDCK cells. The class given is ADME, cell-based, Canis lupus familiaris. To be noted: dog.
The nature of data set [10]: Distribution coefficient, log D of the compound by shake flask method. To be noted: octanol/water. The class given is physicochemical.
In data set [11] the target is T3, Voltage-gated inwardly rectifying potassium channel KCNH2 (Homo sapiens, UniProt Q12809). Briefly: Inhibition of human ERG by patch clamp assay. (In general: Patch clamp records ionic current or voltage across a cell membrane.)
T3 sequence (Q12809 whole entry): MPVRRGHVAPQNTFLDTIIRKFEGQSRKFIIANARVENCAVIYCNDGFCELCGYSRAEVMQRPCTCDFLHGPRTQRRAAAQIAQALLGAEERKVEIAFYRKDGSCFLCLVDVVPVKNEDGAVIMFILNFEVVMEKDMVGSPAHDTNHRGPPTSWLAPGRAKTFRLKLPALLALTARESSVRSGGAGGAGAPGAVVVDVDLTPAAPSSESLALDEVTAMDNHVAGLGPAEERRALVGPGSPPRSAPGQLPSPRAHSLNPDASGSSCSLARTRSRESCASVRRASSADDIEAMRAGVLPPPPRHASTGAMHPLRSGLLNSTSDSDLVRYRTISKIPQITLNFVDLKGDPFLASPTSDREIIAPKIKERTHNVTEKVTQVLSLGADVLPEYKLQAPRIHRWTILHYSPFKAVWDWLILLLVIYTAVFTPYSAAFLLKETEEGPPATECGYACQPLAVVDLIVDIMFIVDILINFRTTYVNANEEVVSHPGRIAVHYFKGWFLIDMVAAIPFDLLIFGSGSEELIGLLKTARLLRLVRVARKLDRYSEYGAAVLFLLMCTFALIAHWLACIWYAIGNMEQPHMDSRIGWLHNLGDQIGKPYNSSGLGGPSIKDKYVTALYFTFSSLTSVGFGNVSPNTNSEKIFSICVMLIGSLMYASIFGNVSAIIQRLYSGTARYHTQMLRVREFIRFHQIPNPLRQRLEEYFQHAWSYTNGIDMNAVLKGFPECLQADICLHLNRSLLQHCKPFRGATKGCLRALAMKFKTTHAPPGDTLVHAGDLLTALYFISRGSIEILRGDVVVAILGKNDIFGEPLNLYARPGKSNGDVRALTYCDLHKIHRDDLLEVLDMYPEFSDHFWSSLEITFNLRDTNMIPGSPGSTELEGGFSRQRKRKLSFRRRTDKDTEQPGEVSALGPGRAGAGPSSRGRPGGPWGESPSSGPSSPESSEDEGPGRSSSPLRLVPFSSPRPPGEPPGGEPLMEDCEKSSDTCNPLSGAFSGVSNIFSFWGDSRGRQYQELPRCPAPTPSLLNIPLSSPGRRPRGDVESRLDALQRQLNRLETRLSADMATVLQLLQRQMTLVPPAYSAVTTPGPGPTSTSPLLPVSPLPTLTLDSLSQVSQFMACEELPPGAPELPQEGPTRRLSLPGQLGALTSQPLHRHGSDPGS
Data set [12] can be described thus: Protein binding in human RBC assessed as unbound fraction at 1 mM. The class given is ADME, tissue-based, Erythrocyte. To be noted: red blood cells (RBC).
Data set [13] has as its target Cytochrome P450 2D6 (Homo sapiens, UniProt P10635). Briefly: Inhibition of CYP2D6 (unknown origin). The class given is ADME.
Data set [14] can be described thus: Unbound fraction in human plasma. The data set is classed as ADME, cell-free.
Data set [15] can be described thus: Intrinsic clearance in human hepatocytes assessed per million cells. The data set is classed as ADME, cell-based, Hepatocyte. To be noted: read-out: CLH.
Data set [16] can be described thus: Binding affinity to purified human cross-linked HbS by SPR analysis. A general note: SPR reads the build-up and loss of mass on a sensor chip optically.
Data set [17] in a line: Apparent permeability from apical to basolateral side in MDCK-MDR1 cells. The class given is ADME, cell-based, Canis lupus familiaris. To be noted: dog.
For data set [18], the target named is Cytochrome P450 2C9 (Homo sapiens, UniProt P11712). Briefly: Inhibition of CYP2C9 (unknown origin). The class given is ADME.
Cytochrome P450 2C9, sequence (P11712 whole entry): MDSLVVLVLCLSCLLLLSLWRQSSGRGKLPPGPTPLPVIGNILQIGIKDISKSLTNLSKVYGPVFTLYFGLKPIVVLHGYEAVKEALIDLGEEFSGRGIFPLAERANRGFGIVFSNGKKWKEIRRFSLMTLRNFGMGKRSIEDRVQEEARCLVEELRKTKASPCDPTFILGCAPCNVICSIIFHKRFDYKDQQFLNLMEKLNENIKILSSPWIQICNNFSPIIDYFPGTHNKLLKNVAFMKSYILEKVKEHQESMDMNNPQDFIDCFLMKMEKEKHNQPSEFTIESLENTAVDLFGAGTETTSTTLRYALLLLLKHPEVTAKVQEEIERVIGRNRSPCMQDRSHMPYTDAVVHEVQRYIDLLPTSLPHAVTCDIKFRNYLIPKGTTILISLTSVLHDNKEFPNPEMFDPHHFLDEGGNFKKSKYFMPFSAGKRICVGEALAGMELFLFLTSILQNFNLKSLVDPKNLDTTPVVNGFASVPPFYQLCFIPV
A short description of data set [19]: Modulation of HbS (unknown origin) assessed as stabilization of the oxy-state of hemoglobin by measuring conversion from oxyHb (R) to deoxyHb (T) pre-incubated for 1 hr and measured after 120 mins by oxygen dissociation assay. Details: species or system Homo sapiens.
The target of data set [20] is T3, Voltage-gated inwardly rectifying potassium channel KCNH2. Put plainly: Binding affinity to human ERG by dofetilide fluorescence polarization binding assay.
Data set [21] is described as follows: Drug metabolism in human hepatocytes assessed formation of acyl migration products. The class given is ADME, cell-based, Hepatocyte.
Data set [22] can be described thus: Half life in human hepatocytes by NMR analysis. The class given is ADME, cell-based, Hepatocyte.

Cytochrome P450 2D6, sequence (P10635 whole entry): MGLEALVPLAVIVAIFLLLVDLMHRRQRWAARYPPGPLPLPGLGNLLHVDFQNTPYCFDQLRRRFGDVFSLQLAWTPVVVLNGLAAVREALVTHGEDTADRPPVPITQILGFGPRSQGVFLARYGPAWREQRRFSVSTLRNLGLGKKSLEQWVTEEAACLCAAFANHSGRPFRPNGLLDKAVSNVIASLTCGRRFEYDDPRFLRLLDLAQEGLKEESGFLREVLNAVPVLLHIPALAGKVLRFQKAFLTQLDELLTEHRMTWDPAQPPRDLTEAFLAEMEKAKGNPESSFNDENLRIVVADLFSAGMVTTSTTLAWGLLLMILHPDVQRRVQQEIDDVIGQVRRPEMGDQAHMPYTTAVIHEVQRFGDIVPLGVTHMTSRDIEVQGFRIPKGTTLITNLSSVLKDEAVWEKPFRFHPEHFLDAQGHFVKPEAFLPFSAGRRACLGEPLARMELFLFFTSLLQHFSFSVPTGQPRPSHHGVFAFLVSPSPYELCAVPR
Cytochrome P450 3A4, sequence (P08684 whole entry): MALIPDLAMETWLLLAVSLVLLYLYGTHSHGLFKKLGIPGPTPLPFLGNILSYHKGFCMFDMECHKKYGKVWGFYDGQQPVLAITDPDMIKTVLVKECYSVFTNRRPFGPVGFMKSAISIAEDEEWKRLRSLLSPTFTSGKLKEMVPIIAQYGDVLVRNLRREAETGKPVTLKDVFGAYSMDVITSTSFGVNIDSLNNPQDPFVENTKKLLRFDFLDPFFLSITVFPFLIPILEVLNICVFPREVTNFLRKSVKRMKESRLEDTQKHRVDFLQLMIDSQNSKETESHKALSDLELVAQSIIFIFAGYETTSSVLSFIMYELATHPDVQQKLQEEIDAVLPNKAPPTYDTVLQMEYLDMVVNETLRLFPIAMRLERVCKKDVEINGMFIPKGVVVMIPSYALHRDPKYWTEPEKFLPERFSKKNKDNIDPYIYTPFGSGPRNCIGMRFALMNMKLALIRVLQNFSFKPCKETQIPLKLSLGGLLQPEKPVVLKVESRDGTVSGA

What is called IC50 is the point on the concentration scale where inhibition reaches its midpoint. By Papp B→A is commonly meant the apparent permeability from the basolateral to the apical side of a cell layer. As usually defined, the Papp is a coefficient for how fast a substance crosses the barrier. By logD is commonly meant lipophilicity at a set pH, counting ionised and neutral species. High values mean higher lipophilicity, low ones lower lipophilicity. The term fraction unbound denotes free concentration divided by total concentration. For orientation: Kd means the concentration at which binding is half-saturated. A high value points to a looser complex. As usually defined, the Papp A→B is the apparent permeability from the apical to the basolateral side of a cell layer. For orientation: Ki means a dissociation constant, usually derived from enzyme kinetics or from competition with a known ligand. Read a high Ki as weaker binding. Turning to `C[C@H](Oc1cc2cc(F)cc(F)c2nc1N)c1cc(C(=O)O)ccc1-n1cccn1`, the IC50 is above 30 µM in [1]; above 30 µM in [3]; 17.3 µM in data set [6]; 144 µM in [11]; above 30 µM in [13]; 20.6 µM in data set [18]. In addition, the IC50 in [19] is 4.6 µM. The Drug metabolism result in data set [2] and in data set [8] was “Metabolite_Detected” throughout. The Papp B→A in [4] turned out to be 4 ×10⁻⁶ cm/s. In addition, the PB result in data set [5] is on record as “Dose-dependent effect”. Besides, the PPB entry in data set [7] is “Dose-dependent effect”. Also, the Papp in data set [9] was 3 ×10⁻⁶ cm/s. This molecule had a log distribution coefficient (logD) in data set [10] of 1. Besides, in [12], the fraction unbound at 1000 µM amounted to 0.000577. The fraction unbound in [14] was found to be 0.027. Further, in [15], the hepatocyte CLint is below 3 µL/min/1e6 cells. Further, binding in data set [16] was characterised by a dissociation constant (Kd) of 0.037 µM. Further, the Papp A→B in data set [17] is 0.4 ×10⁻⁶ cm/s. Also, the inhibition constant (Ki) in data set [20] is 40 µM.
Broadly, the half-life is the time needed for the level to fall by half in the phase considered. Regarding `C=CCOC(=O)[C@H]1O[C@@H](OC(=O)c2ccc(-n3cccn3)c([C@H](C)Oc3cc4cc(F)cc(F)c4nc3N)c2)[C@H](O)[C@@H](O)[C@@H]1O`, the Drug metabolism entry in data set [21] was “Metabolite_Detected”. The molecule further gave a half-life in data set [22] of 2.18 h.
